Biological target: T1, P. denitrificans complex I (Pd-CI, Pd-CI-ND), ubiquinone-binding site (Paracoccus denitrificans, UniProt A1B487+A1B495+A1B497)
T1 construct: gene nuoH; native 18-subunit complex from P. denitrificans membranes, His6 tag on Nqo5 (NDUFS3), DDM-purified, reconstituted in MSP2N2 phospholipid nanodiscs; NDUFS2-Arg65 dimethylated; ND3 N-formylMet; with NADH-quinone oxidoreductase subunit 1 (subunit F); NADH-quinone oxidoreductase subunit 2 (subunit E); NADH-quinone oxidoreductase subunit 3 (subunit G); NADH-quinone oxidoreductase subunit 5 (subunit C); NADH-quinone oxidoreductase subunit 7 (subunit A); NADH-quinone oxidoreductase subunit 9 (subunit I); NADH-quinone oxidoreductase subunit 10 (subunit J); NADH-quinone oxidoreductase subunit 11 (subunit K); NADH-quinone oxidoreductase subunit 12 (subunit L); NADH-quinone oxidoreductase subunit 13 (subunit M); NADH-quinone oxidoreductase subunit 14 (subunit N); NADH dehydrogenase [ubiquinone] iron-sulfur protein 4 homologue; NADH dehydrogenase [ubiquinone] iron-sulfur protein 6 homologue; NADH dehydrogenase [ubiquinone]; 1 alpha subcomplex subunit 12 homologue; Protein-L-isoaspartate O-methyltransferase
T1 sequence (A1B497 whole entry): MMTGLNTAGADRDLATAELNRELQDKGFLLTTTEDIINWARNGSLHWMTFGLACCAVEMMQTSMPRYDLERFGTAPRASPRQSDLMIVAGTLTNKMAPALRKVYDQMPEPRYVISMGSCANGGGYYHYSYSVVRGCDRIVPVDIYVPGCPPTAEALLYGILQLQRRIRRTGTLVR
T1 sequence (A1B495 whole entry): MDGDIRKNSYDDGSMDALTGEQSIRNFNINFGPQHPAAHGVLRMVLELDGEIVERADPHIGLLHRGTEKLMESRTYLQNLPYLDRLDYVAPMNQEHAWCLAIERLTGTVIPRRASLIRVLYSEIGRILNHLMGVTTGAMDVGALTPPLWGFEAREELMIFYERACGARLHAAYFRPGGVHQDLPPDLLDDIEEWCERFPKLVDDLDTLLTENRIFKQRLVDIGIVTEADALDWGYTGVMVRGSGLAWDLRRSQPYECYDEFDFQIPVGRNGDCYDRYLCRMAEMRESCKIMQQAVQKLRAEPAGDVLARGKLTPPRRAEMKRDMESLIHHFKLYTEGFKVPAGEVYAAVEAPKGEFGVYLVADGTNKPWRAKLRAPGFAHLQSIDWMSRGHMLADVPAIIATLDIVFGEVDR
T1 sequence (A1B487 whole entry): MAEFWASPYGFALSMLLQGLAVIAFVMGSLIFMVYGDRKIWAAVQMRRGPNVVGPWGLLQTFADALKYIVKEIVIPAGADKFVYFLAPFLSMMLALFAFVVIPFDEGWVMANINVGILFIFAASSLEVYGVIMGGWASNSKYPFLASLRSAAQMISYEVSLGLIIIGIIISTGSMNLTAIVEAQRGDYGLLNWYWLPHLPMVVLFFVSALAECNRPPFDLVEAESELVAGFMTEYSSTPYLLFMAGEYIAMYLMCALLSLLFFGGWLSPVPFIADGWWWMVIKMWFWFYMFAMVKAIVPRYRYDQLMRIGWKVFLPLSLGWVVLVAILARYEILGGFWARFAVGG
Assay: cryo-EM structure of the complex, […] Å
Conditions: closed resting state, oxidised; headgroup partially inserted near ND1-Arg38, Trp41, Met244, Lys295 and NDUFS7-Arg77; nanodiscs with added Q10

COC1=C(OC)C(=O)C(C/C=C(\C)CC/C=C(\C)CC/C=C(\C)CC/C=C(\C)CC/C=C(\C)CC/C=C(\C)CC/C=C(\C)CC/C=C(\C)CC/C=C(\C)CCC=C(C)C)=C(C)C1=O [ubiquinone-10]
cryo-EM structure of the complex, 2.3 Å: Density in the central polar region of the channel has been assigned to a partially inserted ubiquinone-10

Reference: article PMC11522691, “Structure of the turnover-ready state of an ancestral respiratory complex I” (Nature Communications, 2024)
